In patent US10570457B2, “Methods for predicting drug responsiveness” (Medical Prognosis Institute A/S, priority 2014, dated 2020):

Legend:
[1] = system: colorectal cancer; details: cited from earlier work
[2] = system: colorectal cancer patients; test: Survival of colon cancer patients treated with 5-FU, grouped by NT5E-predicted sensitivity; assay type: in vivo, human; details: adjuvant chemotherapy with 5-FU; NT5E expression below vs above population median; 232 colorectal cancer biopsies; p=0.006
Description: A clinical dataset of 232 pre-treatment fresh frozen colorectal cancer surgical biopsies was downloaded from Gene Expression Omnibus under accession number GSE17538. The biopsies were analyzed using the Affymetrix HG-U133-Plus_2 array type. The expression of NT5E was determined by reading the intensity of Affymetrix probeset 203939_at, which is predicted to be more highly expressed in 5-FU-resistant patients. Patients were predicted sensitive to 5-FU if the expression of NT5E was below the population median. Patients were predicted resistant if expression of NT5E was above the population median.

[3] = target: T1, topoisomerase I (Homo sapiens, UniProt P11387); details: metabolite of irinotecan; cited from earlier work
T1 sequence (P11387 1-765): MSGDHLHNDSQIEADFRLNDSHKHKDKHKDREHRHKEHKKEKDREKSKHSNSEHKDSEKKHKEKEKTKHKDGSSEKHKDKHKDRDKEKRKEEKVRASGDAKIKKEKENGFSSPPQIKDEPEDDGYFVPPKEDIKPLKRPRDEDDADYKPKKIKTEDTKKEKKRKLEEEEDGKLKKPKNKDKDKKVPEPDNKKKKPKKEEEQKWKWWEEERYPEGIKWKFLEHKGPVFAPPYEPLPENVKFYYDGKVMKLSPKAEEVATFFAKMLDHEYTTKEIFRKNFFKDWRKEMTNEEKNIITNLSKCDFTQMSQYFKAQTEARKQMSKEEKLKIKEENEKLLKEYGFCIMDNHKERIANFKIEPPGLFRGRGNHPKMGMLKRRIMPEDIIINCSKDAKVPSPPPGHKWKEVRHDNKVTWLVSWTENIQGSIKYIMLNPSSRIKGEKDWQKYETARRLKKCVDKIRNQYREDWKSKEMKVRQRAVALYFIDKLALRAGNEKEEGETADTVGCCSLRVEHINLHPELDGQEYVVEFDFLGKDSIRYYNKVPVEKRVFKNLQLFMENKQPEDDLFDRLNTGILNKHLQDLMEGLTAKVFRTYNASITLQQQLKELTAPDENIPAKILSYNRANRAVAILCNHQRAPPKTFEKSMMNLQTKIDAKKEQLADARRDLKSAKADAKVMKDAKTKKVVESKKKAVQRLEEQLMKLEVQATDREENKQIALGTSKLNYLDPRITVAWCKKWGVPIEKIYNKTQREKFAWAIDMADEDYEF

| SMILES | Survival effect of 5-FU treatment ([1]; adjuvant setting of colorectal cancer) | Response rate, 5-FU monotherapy ([1]; metastatic colorectal cancer) | Survival of predicted-sensitive group versus predicted-resistant group [2] | Potency as a topoisomerase inhibitor relative to irinotecan [3] |
| --- | --- | --- | --- | --- |
| O=c1[nH]cc(F)c(=O)[nH]1 [5-Fluorouracil (5-FU), 5-fluorouracil] | survival benefit | 10-15% | significantly higher rate of survival |  |
| CCc1c2c(nc3ccc(O)cc13)-c1cc3c(c(=O)n1C2)COC(=O)[C@]3(O)CC [SN-38] |  |  |  | significantly greater potency |
